target: Histone deacetylase 2 (Homo sapiens, UniProt Q92769); experiment: Inhibition of full-length recombinant human C-terminal GST tagged HDAC2 expressed in Sf9 insect cells using aminoluciferin peptide substrate at 100 nM preincubated for 3 hrs followed by substrate addition and measured after 30 mins by HDAC-Glo I/II chemiluminescence assay; conditions: time 3.5 hrs
Sequence (Q92769 whole entry): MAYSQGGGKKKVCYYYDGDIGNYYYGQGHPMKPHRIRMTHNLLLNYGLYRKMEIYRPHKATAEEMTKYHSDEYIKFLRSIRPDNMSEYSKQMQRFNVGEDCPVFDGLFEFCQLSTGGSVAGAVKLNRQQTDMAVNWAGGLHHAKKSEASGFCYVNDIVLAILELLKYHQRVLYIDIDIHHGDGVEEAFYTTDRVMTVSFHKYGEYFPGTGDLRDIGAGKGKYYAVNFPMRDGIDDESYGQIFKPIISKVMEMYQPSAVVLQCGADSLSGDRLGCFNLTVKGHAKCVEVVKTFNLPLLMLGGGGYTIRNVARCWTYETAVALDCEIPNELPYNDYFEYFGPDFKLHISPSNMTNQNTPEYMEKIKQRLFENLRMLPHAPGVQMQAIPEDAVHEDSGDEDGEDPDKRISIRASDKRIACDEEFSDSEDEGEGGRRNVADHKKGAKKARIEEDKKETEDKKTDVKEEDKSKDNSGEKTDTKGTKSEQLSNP

| Structure (SMILES) | inhibition |
| --- | --- |
| Nc1ccc(-c2cccs2)cc1NC(=O)CCc1cn(Cc2cccc(-c3ccccc3)c2)nn1 | 0% |
| Nc1ccc(-c2cccnc2)cc1NC(=O)CCc1cn(-c2ccccc2-c2ccccc2)nn1 | 9% |
| Nc1ccc(-c2cccs2)cc1NC(=O)c1ccc(-c2cn(Cc3ccc(-c4ccccc4)cc3)nn2)cc1 | 0% |
| Nc1ccc(-c2cccs2)cc1NC(=O)c1ccc(-c2cn(CCCCC(=O)O)nn2)cc1 | 36% |
| Nc1ccc(-c2cccs2)cc1NC(=O)c1ccc(-c2cn(-c3ccc(O)cc3)nn2)s1 | 20% |
| Cc1ccc(CCn2cc(-c3ccc(C(=O)Nc4cc(-c5cccs5)ccc4N)s3)nn2)cc1 | 22% |
| Nc1ccc(-c2cccs2)cc1NC(=O)c1cn(CCc2ccccn2)nn1 | 0% |
| Nc1ccc(-c2cccs2)cc1NC(=O)c1ccc(-c2cn(CCc3ccc(C(=O)O)cc3)nn2)s1 | 55% |
| Nc1ccc(-c2ccccc2)cc1NC(=O)CCc1cn(Cc2ccc(C(=O)O)cc2)nn1 | 27% |
| Nc1ccc(-c2ccc(F)cc2)cc1NC(=O)CCc1cn(Cc2ccc(OC(F)(F)F)cc2)nn1 | 0% |
| Nc1ccc(-c2cccs2)cc1NC(=O)c1ccc(-c2cn(Cc3ccc(Oc4ccccc4)cc3)nn2)cc1 | 0% |
| Nc1ccc(-c2ccsc2)cc1NC(=O)c1cn(CCc2ccc(Cl)cc2)nn1 | 0% |
| Nc1ccc(-c2ccsc2)cc1NC(=O)c1cn(CCc2ccc(C(=O)O)cc2)nn1 | 18% |
| Nc1ccc(-c2ccccc2)cc1NC(=O)CCc1cn(Cc2ccc3ccccc3c2)nn1 | 11% |
| Nc1ccc(-c2ccccc2)cc1NC(=O)CCc1cn(C[S+]([O-])c2ccccc2)nn1 (stereo not drawn) | 8% |
| Nc1ccc(-c2ccsc2)cc1NC(=O)CCc1cn(Cc2cccc3ccccc23)nn1 | 2% |
| Nc1ccc(-c2cccs2)cc1NC(=O)c1ccc(-c2cn(Cc3cccc(-c4ccccc4)c3)nn2)s1 | 0% |
| Cc1ccc(CCn2cc(CCC(=O)Nc3cc(-c4ccccc4)ccc3N)nn2)cc1 | 16% |
| Nc1ccc(-c2cccnc2)cc1NC(=O)CCc1cn(CCN2CCOCC2)nn1 | 0% |
| Nc1ccc(-c2ccc(F)cc2)cc1NC(=O)CCc1cn(CCc2ccc([N+](=O)[O-])cc2)nn1 | 20% |
| Nc1ccc(-c2ccsc2)cc1NC(=O)c1cn(Cc2cccc(-c3ccccc3)c2)nn1 | 0% |
| Nc1ccc(-c2ccccc2)cc1NC(=O)CCc1cn(CCc2ccccn2)nn1 | 0% |
| Nc1ccc(-c2cccs2)cc1NC(=O)CCc1cn(CCc2cccc(Cl)c2)nn1 | 9% |

| Structure (SMILES) | inhibition |
| --- | --- |
| Nc1ccc(-c2cccs2)cc1NC(=O)c1cccc(-c2cn(CCc3cccc(F)c3)nn2)c1 | 0% |
| Nc1ccc(-c2ccc(F)cc2)cc1NC(=O)c1cn(Cc2ccc(-c3ccccc3)cc2)nn1 | 0% |
| Nc1ccc(-c2ccccc2)cc1NC(=O)c1cn(Cc2cc3ccccc3s2)nn1 | 0% |
| Nc1ccc(-c2ccsc2)cc1NC(=O)CCc1cn(Cc2cccc(C(=O)O)c2)nn1 | 0% |
| Nc1ccc(-c2ccccc2)cc1NC(=O)CCc1cn(Cc2nc3ccccc3[nH]2)nn1 | 27% |
| Nc1ccc(-c2cccs2)cc1NC(=O)c1cn(CCc2cccc([N+](=O)[O-])c2)nn1 | 13% |
| Nc1ccc(-c2cccs2)cc1NC(=O)c1cccc(-c2cn(CCCCCc3ccccc3)nn2)c1 | 0% |
| Nc1ccc(-c2cccs2)cc1NC(=O)c1cn(CCc2ccc(Cl)cc2)nn1 | 0% |
| COc1ccc(Cn2cc(CCC(=O)Nc3cc(-c4cccs4)ccc3N)nn2)cc1 | 10% |
| Nc1ccc(-c2ccccc2)cc1NC(=O)CCc1cn(CCc2cccc(Cl)c2)nn1 | 1% |
| Nc1ccc(-c2ccsc2)cc1NC(=O)c1cn(Cc2ccc3ccccc3c2)nn1 | 3% |
| Nc1ccc(-c2ccsc2)cc1NC(=O)c1cn(CCc2cccc3ccccc23)nn1 | 0% |
| Nc1ccc(-c2cccs2)cc1NC(=O)c1cn(CCc2ccc([N+](=O)[O-])cc2)nn1 | 17% |
| Nc1ccc(-c2ccc(F)cc2)cc1NC(=O)CCc1cn(CCc2ccccc2C(F)(F)F)nn1 | 0% |
| CCc1ccc(Cn2cc(C(=O)Nc3cc(-c4ccsc4)ccc3N)nn2)cc1 | 0% |
| Nc1ccc(-c2ccccc2)cc1NC(=O)CCc1cn(-c2cccc3ccccc23)nn1 | 0% |
| Nc1ccc(-c2ccccc2)cc1NC(=O)c1cn(CC(=O)c2ccccc2)nn1 | 0% |
| Nc1ccc(-c2cccs2)cc1NC(=O)c1ccc(-c2cn(CCc3ccc(C(F)(F)F)cc3)nn2)s1 | 0% |
| COc1ccc(Cn2cc(C(=O)Nc3cc(-c4ccsc4)ccc3N)nn2)cc1 | 25% |
| Nc1ccc(-c2ccccc2)cc1NC(=O)c1cn(CS(=O)(=O)c2ccccc2)nn1 | 0% |
| Nc1ccc(-c2ccc(F)cc2)cc1NC(=O)CCc1cn(CCc2ccc(C(=O)O)cc2)nn1 | 33% |
| Nc1ccc(-c2cccs2)cc1NC(=O)CCc1cn(CCc2cccc(F)c2)nn1 | 5% |
| Nc1ccc(-c2ccccc2)cc1NC(=O)CCc1cn(CS(=O)(=O)c2ccccc2)nn1 | 9% |

| Structure (SMILES) | inhibition |
| --- | --- |
| Cc1ccccc1CCn1cc(CCC(=O)Nc2cc(-c3ccccc3)ccc2N)nn1 | 4% |
| Nc1ccc(-c2cccs2)cc1NC(=O)c1cn(Cc2cccc3ccccc23)nn1 | 13% |
| Nc1ccc(-c2ccsc2)cc1NC(=O)CCc1cn(CCC23CC4CC(CC(C4)C2)C3)nn1 | 0% |
| Nc1ccc(-c2cccs2)cc1NC(=O)c1cccc(-c2cn(/C=C/c3ccccc3)nn2)c1 | 10% |
| Nc1ccc(-c2ccccc2)cc1NC(=O)c1cn(-c2ccc(O)cc2)nn1 | 0% |
| Cc1cccc(C)c1NC(=O)Cn1cc(C(=O)Nc2cc(-c3ccc(F)cc3)ccc2N)nn1 | 33% |
| Nc1ccc(-c2cccs2)cc1NC(=O)c1ccc(-c2cn(Cc3cccc(-c4ccccc4)c3)nn2)cc1 | 0% |
| Nc1ccc(-c2ccccc2)cc1NC(=O)c1cn(-c2ccc(I)cc2)nn1 | 0% |
| Nc1ccc(-c2cccs2)cc1NC(=O)CCc1cn(CCc2c[nH]c3ccccc23)nn1 | 18% |
| Nc1ccc(-c2cccs2)cc1NC(=O)CCc1cn(-c2cccc3ccccc23)nn1 | 0% |
| Nc1ccc(-c2cccs2)cc1NC(=O)c1ccc(-c2cn(-c3ccccc3-c3ccccc3)nn2)s1 | 0% |
| Nc1ccc(-c2ccccc2)cc1NC(=O)c1cn(CC(=O)Nc2ccc(F)cc2)nn1 | 0% |
| Nc1ccc(-c2ccsc2)cc1NC(=O)CCc1cn(Cc2ccc(C(=O)O)cc2)nn1 | 31% |
| Nc1ccc(-c2ccc(F)cc2)cc1NC(=O)CCc1cn(CCc2ccccn2)nn1 | 18% |
| Nc1ccc(-c2ccsc2)cc1NC(=O)c1cn(CCN2CCOCC2)nn1 | 0% |
| Nc1ccc(-c2cccnc2)cc1NC(=O)CCc1cn(-c2ccc([N+](=O)[O-])cc2)nn1 | 2% |
| Nc1ccc(-c2ccc(F)cc2)cc1NC(=O)c1cn(CCc2cccc([N+](=O)[O-])c2)nn1 | 20% |
| Cc1ccccc1CCn1cc(CCC(=O)Nc2cc(-c3ccc(F)cc3)ccc2N)nn1 | 7% |
| COc1ccc(-n2cc(CCC(=O)Nc3cc(-c4ccccc4)ccc3N)nn2)cc1 | 11% |
| Nc1ccc(-c2cccs2)cc1NC(=O)c1ccc(-c2cn(CC(=O)Nc3ccc(F)cc3)nn2)cc1 | 50% |
| Nc1ccc(-c2cccs2)cc1NC(=O)CCc1cn(Cc2cc3ccccc3s2)nn1 | 27% |
| Nc1ccc(-c2cccnc2)cc1NC(=O)CCc1cn(CCc2cccc(Cl)c2)nn1 | 30% |
